Assay results reported in paper PMC8754229 (Journal of Virology, 2022).

Experiments:
SARS-CoV-2 M^pro = SARS-CoV-2 M^pro (Severe acute respiratory syndrome coronavirus 2, UniProt P0DTD1); format: biochemical
[1] = statement in Discussion, no test described, ref not given; cited from earlier work

Compound	Inhibition against M^pro (in words) (SARS-CoV-2 M^pro)	Cytotoxicity (in words) [1]
CC(=O)O[C@H]1[C@H](OCCc2ccc(O)c(O)c2)O[C@H](CO[C@@H]2O[C@H](CO)[C@@H](O)[C@H](O)[C@H]2O)[C@@H](OC(=O)/C=C/c2ccc(O)c(O)c2)[C@@H]1OC[C@@H]1O[C@@H](C)[C@H](O)[C@@H](O)[C@H]1O [tubuloside A]	none of them showed potent inhibition	–
maltopentaose	none of them showed potent inhibition	–
CC(C)=CC[C@@H](O)C1=CC(=O)c2c(O)ccc(O)c2C1=O [Shikonin]	–	strong cytotoxicity
